US11697648B2, “Fused pyrimidine pyridinone compounds as JAK inhibitors” (THERAVANCE BIOPHARMA R&D IP, LLC, priority 2019, dated 2023)

Tests used:
[1] = test system: IL-2 stimulated STAT5 phosphorylation in Tall-1 human T cell line (JAK3); assay: Cellular JAK3 potency assay: inhibition of IL-2 stimulated pSTAT5 in Tall-1 T cells; type: cell-based
Description: Assay 2: Cellular JAK3 Potency Assay: Inhibition of IL-2 Stimulated pSTAT5 in Tall-1 T Cells
The potency of test compounds for inhibition of interleukin-2 (IL-2) stimulated STAT5 phosphorylation was measured in the Tall-1 human T cell line (DSMZ) using AlphaLisa. Because IL-2 signals through JAK3, this assay provides a measure of JAK3 cellular potency.
Phosphorylated STAT5 was measured via the AlphaLISA SureFire Ultra pSTAT5 (Tyr694/699) kit (PerkinElmer).
Human T cells from the Tall-1 cell line were cultured in a 37° C., 5% CO2 humidified incubator in RPMI (Life Technologies) supplemented with 15% Heat Inactivated Fetal Bovine Serum (FBS, Life Technologies), 2 mM Glutamax (Life Technologies), 25 mM HEPES (Life Technologies) and 1× Pen/Strep (Life Technologies). Compounds were serially diluted in DMSO and dispensed acoustically to empty wells. Assay media (phenol red-free DMEM (Life Technologies) supplemented with 10% FBS (ATCC)) was dispensed (4 μL/well) and plates shaken at 900 rpm for 10 inns. Cells were seeded at 45,000 cells/well in assay media (4 μL/well), and incubated at 37° C., 5% CO2 for 1 hour, followed by the addition of IL-2 (R&D Systems; final concentration 300 ng/ml) in pre-warmed assay media (4 μL) for 30 minutes. After cytokine stimulation, cells were lysed with 6 ul of 3× AlphaLisa Lysis Buffer (PerkinElmer) containing 1× PhosStop and Complete tablets (Roche). The lysate was shaken at 900 rpm for 10 minutes at room temperature (RT). Phosphorylated STAT5 was measured via the pSTAT5 AlphaLisa kit (PerkinElmer). Freshly prepared acceptor bead mixture was dispensed onto lysate (5 μL) under green filtered <100 lux light. Plates were shaken at 900 rpm for 2 mins, briefly spun down, and incubated for 2 hrs at RT in the dark. Donor beads were dispensed (5 μL) under green filtered <100 lux light. Plates were shaken at 900 rpm for 2 minutes, briefly spun down, and incubated overnight at RT in the dark. Luminescence was measured with excitation at 689 nm and emission at 570 nm using an EnVision plate reader (PerkinElmer) under green filtered <100 lux light.
To determine the inhibitory potency of test compounds in response to IL-2, the average emission intensity of beads bound to pSTAT5 was measured in a human T cell line. IC50 values were determined from analysis of the inhibition curves of signal intensity versus compound concentration. Data are expressed as pIC50 (negative decadic logarithm IC50) values (mean standard deviation).

JAK3 = JAK3 (Homo sapiens (Human), UniProt P52333); assay: Biochemical JAK3 kinase assay (LanthaScreen)
Chain of JAK3 (P52333 whole entry): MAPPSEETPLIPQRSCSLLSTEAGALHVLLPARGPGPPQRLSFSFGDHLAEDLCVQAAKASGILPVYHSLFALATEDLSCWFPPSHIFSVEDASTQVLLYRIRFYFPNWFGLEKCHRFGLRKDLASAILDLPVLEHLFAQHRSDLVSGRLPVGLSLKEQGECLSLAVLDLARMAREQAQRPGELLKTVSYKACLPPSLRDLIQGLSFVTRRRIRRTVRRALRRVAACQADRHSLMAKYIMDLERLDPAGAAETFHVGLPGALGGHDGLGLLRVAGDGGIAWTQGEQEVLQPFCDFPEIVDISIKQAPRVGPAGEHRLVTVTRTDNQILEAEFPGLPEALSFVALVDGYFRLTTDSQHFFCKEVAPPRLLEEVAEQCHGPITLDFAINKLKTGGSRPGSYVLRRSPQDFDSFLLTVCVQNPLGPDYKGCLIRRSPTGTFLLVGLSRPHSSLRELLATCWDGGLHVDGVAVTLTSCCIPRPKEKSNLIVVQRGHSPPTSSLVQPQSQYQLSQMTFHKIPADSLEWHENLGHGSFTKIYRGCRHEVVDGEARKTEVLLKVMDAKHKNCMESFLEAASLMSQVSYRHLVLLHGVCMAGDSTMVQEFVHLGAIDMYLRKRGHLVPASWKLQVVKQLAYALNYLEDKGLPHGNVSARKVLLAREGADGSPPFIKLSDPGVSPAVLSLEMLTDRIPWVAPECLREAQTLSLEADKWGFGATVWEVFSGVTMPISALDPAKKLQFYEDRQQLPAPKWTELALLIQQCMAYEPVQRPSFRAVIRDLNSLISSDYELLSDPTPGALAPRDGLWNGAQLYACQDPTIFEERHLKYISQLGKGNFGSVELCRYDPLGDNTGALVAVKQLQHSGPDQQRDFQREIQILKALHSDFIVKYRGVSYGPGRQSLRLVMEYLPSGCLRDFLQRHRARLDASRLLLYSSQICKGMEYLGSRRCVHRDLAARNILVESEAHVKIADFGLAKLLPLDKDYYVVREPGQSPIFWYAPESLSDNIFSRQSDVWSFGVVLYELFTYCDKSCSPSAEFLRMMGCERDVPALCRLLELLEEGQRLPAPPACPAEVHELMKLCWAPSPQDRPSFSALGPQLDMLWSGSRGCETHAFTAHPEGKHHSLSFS
Description: (§1) Assay 1: Biochemical JAK and Tyk2 Kinase Assays
(§2) A panel of four LanthaScreen JAK biochemical assays (JAK1, 2, 3 and Tyk2) were carried in a common kinase reaction buffer (50 mM HEPES, pH 7.5, 0.01% Brij-35, 10 mM MgCl2, and 1 mM EGTA). Recombinant GST-tagged JAK enzymes and a GFP-tagged STAT1 peptide substrate were obtained from Life Technologies.
(§3) Serially or discretely diluted compounds were pre-incubated with each of the four JAK enzymes and the substrate in white 384-well microplates (Corning) at ambient temperature for 1 h. ATP was subsequently added to initiate the kinase reactions in 10 μL total volume, with 1% DMSO. […] Kinase reactions were allowed to proceed for 1 hour at ambient temperature before a 10 μL preparation of EDTA (10 mM final concentration) and Tb-anti-pSTAT1 (pTyr701) antibody (Life Technologies, 2 nM final concentration) in TR-FRET dilution buffer (Life Technologies) was added. The plates were allowed to incubate at ambient temperature for 1 h before being read on the EnVision reader (Perkin Elmer). Emission ratio signals (520 nm/495 nm) were recorded and utilized to calculate the percent inhibition values based on DMSO and background controls.
(§4) For dose-response analysis, percent inhibition data were plotted vs. compound concentrations, and IC50 values were determined from a 4-parameter robust fit model with the Prism software (GraphPad Software). Results were expressed as pIC50 (negative logarithm of IC50) and subsequently converted to pKi (negative logarithm of dissociation constant, Ki) using the Cheng-Prusoff equation.

JAK1 = JAK1 (Homo sapiens (Human), UniProt P23458); assay: Biochemical JAK1 kinase assay (LanthaScreen)
Chain of JAK1 (P23458 whole entry): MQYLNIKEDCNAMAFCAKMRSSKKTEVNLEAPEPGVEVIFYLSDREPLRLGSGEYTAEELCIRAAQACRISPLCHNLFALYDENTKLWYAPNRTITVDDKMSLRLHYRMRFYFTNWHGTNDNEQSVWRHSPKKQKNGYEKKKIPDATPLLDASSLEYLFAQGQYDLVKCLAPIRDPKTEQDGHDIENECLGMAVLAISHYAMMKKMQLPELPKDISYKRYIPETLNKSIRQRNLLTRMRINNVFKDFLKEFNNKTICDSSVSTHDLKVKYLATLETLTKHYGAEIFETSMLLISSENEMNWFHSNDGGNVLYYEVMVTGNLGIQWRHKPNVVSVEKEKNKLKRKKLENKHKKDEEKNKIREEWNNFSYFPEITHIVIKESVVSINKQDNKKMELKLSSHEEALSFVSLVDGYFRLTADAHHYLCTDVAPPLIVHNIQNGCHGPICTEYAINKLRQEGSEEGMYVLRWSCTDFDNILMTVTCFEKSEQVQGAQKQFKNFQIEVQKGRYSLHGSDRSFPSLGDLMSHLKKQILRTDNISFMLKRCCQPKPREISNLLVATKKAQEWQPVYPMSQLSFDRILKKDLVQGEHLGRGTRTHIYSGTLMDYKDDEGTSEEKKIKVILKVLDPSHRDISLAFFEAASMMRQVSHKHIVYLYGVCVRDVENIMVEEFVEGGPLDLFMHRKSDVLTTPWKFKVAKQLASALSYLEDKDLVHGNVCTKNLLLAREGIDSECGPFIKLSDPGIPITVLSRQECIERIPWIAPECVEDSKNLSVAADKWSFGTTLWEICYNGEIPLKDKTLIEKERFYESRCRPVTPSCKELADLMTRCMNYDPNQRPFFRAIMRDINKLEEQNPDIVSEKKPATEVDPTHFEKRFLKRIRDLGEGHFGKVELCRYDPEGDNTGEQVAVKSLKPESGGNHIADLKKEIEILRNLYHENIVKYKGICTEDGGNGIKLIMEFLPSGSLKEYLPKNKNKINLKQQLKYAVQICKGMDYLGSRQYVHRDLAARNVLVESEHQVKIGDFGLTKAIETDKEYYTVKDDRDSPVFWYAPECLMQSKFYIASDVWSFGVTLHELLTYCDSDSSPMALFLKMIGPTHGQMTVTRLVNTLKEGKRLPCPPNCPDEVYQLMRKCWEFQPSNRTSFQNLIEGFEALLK
Description: as §1, §2, §3, §4

[2] = IL-2 stimulated pSTAT5, Tall-1 T cells
[3] = selectivity JAK3 over JAK1, difference of pKi
[4] = IL-2 stimulated pSTAT5 in Tall-1 T cells
[5] = selectivity, difference of pKi values

Structure (SMILES)	Tall-1 (pIC50) [1, 2]	JAK 3 (pKi) (JAK3)	JAK3 (pKi)-JAK1 (pKi) (JAK3; [3])	JAK 1 (pKi) (JAK1)	Tall-1 (pIC50) [1, 4]	JAK3 (pKi)-JAK1 (pKi) (JAK3; [5])
C=CC(=O)N1CC(CCn2c(=O)ccc3cnc(Nc4cnn(CCOC)c4)nc32)C1 [Example 21]	C (C represents a pIC50 value between 6 and 6.7 (IC50 between 1 μM and 200 nM))	B (B represents pKi value between 9 and 10 (Ki between 1 nM and 0.1 nM))	A (A represents a value of 3 or above)	E (E represents a pKi value of 7 or below (Ki of 100 nM or above))		
C=CC(=O)N1CC(CCn2c(=O)ccc3cnc(Nc4cnn(CCN(C)C)c4)nc32)C1 [Example 22]	C (C represents a pIC50 value between 6 and 6.7 (IC50 between 1 μM and 200 nM))	B (B represents pKi value between 9 and 10 (Ki between 1 nM and 0.1 nM))	A (A represents a value of 3 or above)	E (E represents a pKi value of 7 or below (Ki of 100 nM or above))		
C=CC(=O)N1CC(CCn2c(=O)ccc3cnc(Nc4ccc(N5CCOCC5)cn4)nc32)C1 [Example 29]	C (C represents a pIC50 value between 6 and 6.7 (IC50 between 1 μM and 200 nM))	B (B represents pKi value between 9 and 10 (Ki between 1 nM and 0.1 nM))	A (A represents a value of 3 or above)	E (E represents a pKi value of 7 or below (Ki of 100 nM or above))		
C=CC(=O)N1CCN(CCn2c(=O)ccc3cnc(Nc4ccccc4)nc32)CC1 [Example 40]	C (C represents a pIC50 value between 6 and 6.7 (IC50 between 1 μM and 200 nM))	B (B represents pKi value between 9 and 10 (Ki between 1 nM and 0.1 nM))	A (A represents a value of 3 or above)	E (E represents a pKi value of 7 or below (Ki of 100 nM or above))		
C=CC(=O)N1CCN(CCn2c(=O)ccc3cnc(Nc4ccc(N5CCOCC5)c(F)c4)nc32)CC1 [Example 41]	C (C represents a pIC50 value between 6 and 6.7 (IC50 between 1 μM and 200 nM))	B (B represents pKi value between 9 and 10 (Ki between 1 nM and 0.1 nM))	A (A represents a value of 3 or above)	E (E represents a pKi value of 7 or below (Ki of 100 nM or above))		
C=CC(=O)N1CCN(CCn2c(=O)ccc3cnc(Nc4cnn(CCOC(C)C)c4)nc32)CC1 [Example 42]	C (C represents a pIC50 value between 6 and 6.7 (IC50 between 1 μM and 200 nM))	B (B represents pKi value between 9 and 10 (Ki between 1 nM and 0.1 nM))	A (A represents a value of 3 or above)	E (E represents a pKi value of 7 or below (Ki of 100 nM or above))		
C=CC(=O)N1CCN(CCn2c(=O)ccc3cnc(Nc4cnn(C5CCN(C)CC5)c4)nc32)CC1 [Example 43]	C (C represents a pIC50 value between 6 and 6.7 (IC50 between 1 μM and 200 nM))	B (B represents pKi value between 9 and 10 (Ki between 1 nM and 0.1 nM))	A (A represents a value of 3 or above)	E (E represents a pKi value of 7 or below (Ki of 100 nM or above))		
C=CC(=O)N1CCN(CCn2c(=O)ccc3cnc(Nc4ccc(N5CCN(C6CC6)CC5)cc4)nc32)CC1 [Example 50]	C (C represents a pIC50 value between 6 and 6.7 (IC50 between 1 μM and 200 nM))	B (B represents pKi value between 9 and 10 (Ki between 1 nM and 0.1 nM))	A (A represents a value of 3 or above)	E (E represents a pKi value of 7 or below (Ki of 100 nM or above))		
C=CC(=O)N1CCN(CCn2c(=O)ccc3cnc(Nc4ccc(N5C[C@@H](C)N(C)[C@H](C)C5)cc4)nc32)[C@@H](C)C1 [Example 199]	A (A represents a pIC50 value≥7.5 (IC50≤32 nM))	B (B represents pKi value between 9 and 10 (Ki between 1 nM and 0.1 nM))	A (A represents a value of 3 or above)	E (E represents a pKi value of 7 or below (Ki of 100 nM or above))		
C=CC(=O)N1CCN(C(C)Cn2c(=O)ccc3cnc(Nc4ccc(N5CCN(C)CC5)cc4)nc32)CC1 (centres unmarked) [Example 218]	C (C represents a pIC50 value between 6 and 6.7 (IC50 between 1 μM and 200 nM))	C (C represents a pKi value between 8 and 9 (Ki between 10 nM and 1 nM))	B (B represents a value of 2.5 to 3)	E (E represents a pKi value of 7 or below (Ki of 100 nM or above))		
C=CC(=O)N1CCN(CCn2c(=O)ccc3cnc(Nc4ccc(N5C[C@@H](C)N(C)[C@@H](C)C5)cc4)nc32)[C@@H](CC)C1 [Example 222]	A (A represents a pIC50 value≥7.5 (IC50≤32 nM))	B (B represents pKi value between 9 and 10 (Ki between 1 nM and 0.1 nM))	A (A represents a value of 3 or above)	E (E represents a pKi value of 7 or below (Ki of 100 nM or above))		
C=CC(=O)N1CC(CCn2c(=O)ccc3cnc(Nc4ccc(N5C[C@@H](C)N(C)C[C@@H]5C)cc4)nc32)C1 [Example 253]		A (A represents a pKi value≥10 (Ki≤0.1 nM))		E (E represents a pKi value of 7 or below (Ki of 100 nM or above))	B (B represents a pC50 value between 6.7 (included) and 7.5 (IC50 between 200 nM and 32 nM))	A (A represents a value of 3 or above)
C=CC(=O)N1CC(CCn2c(=O)ccc3cnc(Nc4ccn(CC)n4)nc32)C1 [Example 254]		B (B represents pKi value between 9 and 10 (Ki between 1 nM and 0.1 nM))		E (E represents a pKi value of 7 or below (Ki of 100 nM or above))	B (B represents a pC50 value between 6.7 (included) and 7.5 (IC50 between 200 nM and 32 nM))	A (A represents a value of 3 or above)
C=CC(=O)N1CCN(CCn2c(=O)ccc3cnc(Nc4ccn(CC)n4)nc32)[C@@H](C)C1 [Example 255]		B (B represents pKi value between 9 and 10 (Ki between 1 nM and 0.1 nM))		E (E represents a pKi value of 7 or below (Ki of 100 nM or above))	C (C represents a pIC50 value between 6 and 6.7 (IC50 between 1 μM and 200 nM))	A (A represents a value of 3 or above)
